The source made the active and inactive calls. No cut-off for these calls is given here.
What was measured:
[1] = Selectivity index, ratio of CC50 for rat L6 cels to IC50 for Leishmania donovani MHOM/ET/67/L82 axenic amastigote; format: toxicity; conditions: L6 cells, read-out: Ratio IC50
[2] = Cytotoxicity against rat L6 cels assessed as reduction in cell viability after 72 hrs by Alamar Blue dye-based fluorometric analysis; conditions: L6 cells
Plasmodium falciparum = test: Antiprotozoal activity against erythrocytic stage of Plasmodium falciparum K1 after 48 hrs by [3H]- hypoxanthine incorporation assay; format: functional, organism-based
[3] = tested on: Trypanosoma brucei rhodesiense; test: Antiprotozoal activity against Trypanosoma brucei rhodesiense STIB900 trypomastigotes after 72 hrs by Alamar Blue dye-based fluorometric analysis; format: functional, organism-based; conditions: STIB900, 72 h
Leishmania donovani = test: Antiprotozoal activity against Leishmania donovani MHOM/ET/67/L82 axenic amastigote after 72 hrs by inverted microscopic analysis; format: functional, organism-based; conditions: MHOM/ET/67/L82, 72 h
[4] = Selectivity index, ratio of CC50 for rat L6 cels to IC50 for erythrocytic stage of Plasmodium falciparum K1; format: toxicity; conditions: L6 cells, read-out: Ratio IC50
Trypanosoma cruzi [5] = test: Antiprotozoal activity against Trypanosoma cruzi Tulahuen C2C4 amastigotes infected in rat L6 cells after 96 hrs by inverted microscopic analysis; format: functional, organism-based; conditions: Tulahuen C2C4, L6, 96 h
Trypanosoma cruzi [6] = test: Potency index, ratio of benznidazole IC50 to compound IC50 for Trypanosoma cruzi Tulahuen C2C4 amastigotes infected in rat L6 cells after 96 hrs by inverted microscopic analysis; format: functional
[7] = Selectivity index, ratio of CC50 for rat L6 cels to IC50 for Trypanosoma brucei rhodesiense STIB900 trypomastigotes; format: toxicity; conditions: L6 cells, read-out: Ratio IC50
[8] = Toxicity in BALB/c mouse infected with Trypanosoma cruzi CL Brener trypomastigotes assessed as reduced mobility at 25 mg/kg, ip bid treated for 4 consecutive days starting at 3 days post infection; format: organism-based; conditions: in vivo, 72 h
Cytochrome P450 3A4 = Cytochrome P450 3A4 (Homo sapiens, UniProt P08684); test: Inhibition of human CYP3A4 in presence of NADPH by luciferase reporter gene assay; format: ADME
Cytochrome P450 2D6 = Cytochrome P450 2D6 (Homo sapiens, UniProt P10635); test: Inhibition of human CYP2D6 in presence of NADPH by luciferase reporter gene assay; format: ADME
[9] = biological target: Sterol 14-alpha demethylase (Trypanosoma cruzi (strain CL Brener)) (UniProt Q7Z1V1); test: Binding affinity to Trypanosoma cruzi CYP51 at 5 to 10 uM by UV-vis spectrophotometry
Cytochrome P450 1A2 = biological target: T1, Cytochrome P450 1A2 (Homo sapiens, UniProt P05177); test: Inhibition of human CYP1A2 in presence of NADPH by luciferase reporter gene assay; format: ADME
T1 sequence (P05177 whole entry): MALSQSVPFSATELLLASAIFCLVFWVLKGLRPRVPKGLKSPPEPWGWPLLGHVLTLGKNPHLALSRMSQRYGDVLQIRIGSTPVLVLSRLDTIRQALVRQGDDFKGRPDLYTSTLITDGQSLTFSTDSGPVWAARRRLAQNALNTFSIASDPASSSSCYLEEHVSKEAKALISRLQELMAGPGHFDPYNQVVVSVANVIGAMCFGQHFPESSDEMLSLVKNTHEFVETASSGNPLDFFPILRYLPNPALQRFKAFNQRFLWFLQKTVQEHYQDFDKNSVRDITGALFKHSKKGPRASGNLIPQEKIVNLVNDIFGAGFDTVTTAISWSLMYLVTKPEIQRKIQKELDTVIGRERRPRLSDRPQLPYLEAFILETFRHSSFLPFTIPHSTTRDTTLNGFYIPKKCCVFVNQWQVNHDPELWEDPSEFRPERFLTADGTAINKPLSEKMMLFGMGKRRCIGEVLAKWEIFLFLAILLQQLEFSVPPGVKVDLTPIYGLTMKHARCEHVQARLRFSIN

Trypanosoma cruzi [10] = test: Antiprotozoal activity against Trypanosoma cruzi CL Brener trypomastigotes infected in BALB/c mouse assessed as reduction in parasitemia at 25 mg/kg, ip bid treated for 4 consecutive days starting at 3 days post infection by bioluminescence assay relative to control; format: functional; parameters: scale not given: the % may be the effect or the level left
[11] = Toxicity in BALB/c mouse infected with Trypanosoma cruzi CL Brener trypomastigotes assessed as loss of body weight at 25 mg/kg, ip bid treated for 4 consecutive days starting at 3 days post infection; format: organism-based; conditions: in vivo, 72 h
[12] = Toxicity in BALB/c mouse infected with Trypanosoma cruzi CL Brener trypomastigotes assessed as hunched posture at 25 mg/kg, ip bid treated for 4 consecutive days starting at 3 days post infection; format: organism-based; conditions: in vivo, 72 h
[13] = Toxicity in BALB/c mouse infected with Trypanosoma cruzi CL Brener trypomastigotes assessed as lack of grooming at 25 mg/kg, ip bid treated for 4 consecutive days starting at 3 days post infection; format: organism-based; conditions: in vivo, 72 h

Cytochrome P450 2D6, sequence (P10635 whole entry): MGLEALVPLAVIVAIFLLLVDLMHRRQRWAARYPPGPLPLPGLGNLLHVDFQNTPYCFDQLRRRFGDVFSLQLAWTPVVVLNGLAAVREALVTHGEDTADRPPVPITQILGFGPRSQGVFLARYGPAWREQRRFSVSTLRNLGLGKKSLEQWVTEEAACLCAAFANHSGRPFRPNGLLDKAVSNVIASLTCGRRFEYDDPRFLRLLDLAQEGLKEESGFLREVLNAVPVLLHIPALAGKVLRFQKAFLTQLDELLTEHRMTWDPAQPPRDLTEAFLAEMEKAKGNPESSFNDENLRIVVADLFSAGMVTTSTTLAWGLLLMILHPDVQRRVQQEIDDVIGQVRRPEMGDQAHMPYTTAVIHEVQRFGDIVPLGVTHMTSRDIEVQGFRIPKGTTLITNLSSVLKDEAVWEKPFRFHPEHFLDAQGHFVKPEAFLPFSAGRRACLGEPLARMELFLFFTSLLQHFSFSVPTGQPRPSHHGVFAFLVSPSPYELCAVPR
Sterol 14-alpha demethylase (Trypanosoma cruzi (strain CL Brener)), sequence (Q7Z1V1 whole entry, looked up): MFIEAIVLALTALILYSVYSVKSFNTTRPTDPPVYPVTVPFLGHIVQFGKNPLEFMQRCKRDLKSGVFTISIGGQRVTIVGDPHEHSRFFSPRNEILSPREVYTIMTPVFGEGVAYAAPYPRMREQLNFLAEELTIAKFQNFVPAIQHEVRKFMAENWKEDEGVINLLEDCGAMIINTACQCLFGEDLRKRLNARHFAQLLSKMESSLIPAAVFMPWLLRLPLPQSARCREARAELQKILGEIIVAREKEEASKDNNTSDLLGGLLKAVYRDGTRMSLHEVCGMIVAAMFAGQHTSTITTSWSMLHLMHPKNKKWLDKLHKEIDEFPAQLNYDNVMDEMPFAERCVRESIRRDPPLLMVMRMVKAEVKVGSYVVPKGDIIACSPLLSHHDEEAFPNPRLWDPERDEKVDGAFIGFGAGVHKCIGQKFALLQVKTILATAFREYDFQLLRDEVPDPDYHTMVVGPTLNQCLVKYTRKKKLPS
Cytochrome P450 3A4, sequence (P08684 whole entry): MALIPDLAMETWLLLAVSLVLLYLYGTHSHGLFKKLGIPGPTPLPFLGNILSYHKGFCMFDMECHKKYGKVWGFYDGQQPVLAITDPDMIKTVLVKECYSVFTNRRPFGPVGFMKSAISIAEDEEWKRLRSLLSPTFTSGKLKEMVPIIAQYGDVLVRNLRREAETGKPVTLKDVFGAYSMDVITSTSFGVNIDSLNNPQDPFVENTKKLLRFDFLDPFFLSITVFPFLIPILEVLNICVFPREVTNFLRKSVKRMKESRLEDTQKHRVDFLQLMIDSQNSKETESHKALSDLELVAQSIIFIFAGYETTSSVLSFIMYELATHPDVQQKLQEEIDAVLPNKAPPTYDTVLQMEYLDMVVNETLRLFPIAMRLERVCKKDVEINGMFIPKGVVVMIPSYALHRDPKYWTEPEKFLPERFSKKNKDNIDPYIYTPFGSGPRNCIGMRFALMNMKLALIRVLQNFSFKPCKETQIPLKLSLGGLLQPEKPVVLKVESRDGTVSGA

Clc1ccc(-c2c[nH]cc2[C@@H](c2ccc(Cl)cc2Cl)n2ccnc2)cc1
selectivity ratio [1]: 1
CC50 at 72 h [2]: 5.56 µM
IC50 (Plasmodium falciparum): 0.11 µM
IC50 [3]: 12.2 µM
IC50 (Leishmania donovani): 5.02 µM
selectivity ratio [4]: 51
IC50 (Trypanosoma cruzi [5]): 0.017 µM

Cc1ccc(-c2c[nH]cc2C(c2ccc(Cl)cc2Cl)n2ccnc2)cc1 (stereo not drawn)
selectivity ratio [1]: 3
CC50 at 72 h [2]: 18.4 µM
Ratio IC50 (Trypanosoma cruzi [6]): 57
IC50 (Plasmodium falciparum): 0.29 µM
IC50 [3]: 18.8 µM
IC50 (Leishmania donovani): 5.64 µM
selectivity ratio [4]: 63
IC50 (Trypanosoma cruzi [5]): 0.05 µM

N#Cc1ccc(C(c2ccn(-c3ccc(Cl)cc3)c2)n2ccnc2)cc1 (stereo not drawn)
selectivity ratio [1]: 1
CC50 at 72 h [2]: 42.4 µM
IC50 (Plasmodium falciparum): 2.18 µM
IC50 [3]: 35.7 µM
IC50 (Leishmania donovani): 30.4 µM
selectivity ratio [4]: 19
selectivity ratio [7]: 1
IC50 (Trypanosoma cruzi [5]): 3.9 µM

Nc1nc(N)nc(Nc2ccc([As]3SCC(CO)S3)cc2)n1 (stereo not drawn) [MELARSOPROL]
CC50 at 72 h [2]: 28.9 µM
selectivity ratio [7]: 3280

O=C(Cn1ccnc1[N+](=O)[O-])NCc1ccccc1 [BENZNIDAZOLE]
CC50 at 72 h [2]: > 385 µM

Clc1ccc(-c2c[nH]cc2[C@H](c2ccc(Cl)cc2Cl)n2ccnc2)cc1
CC50 at 72 h [2]: 2.56 µM
IC50 (Plasmodium falciparum): 0.092 µM
IC50 [3]: 9.21 µM
selectivity ratio [4]: 28
IC50 (Trypanosoma cruzi [5]): 0.0009 µM

FC(F)(F)c1ccc(-n2ccc(C(c3ccc(Cl)cc3)n3ccnc3)c2)cc1 (stereo not drawn)
selectivity ratio [1]: 2
CC50 at 72 h [2]: 40.1 µM
IC50 (Plasmodium falciparum): 1.81 µM
IC50 [3]: 31.1 µM
IC50 (Leishmania donovani): 21.3 µM
selectivity ratio [4]: 22
selectivity ratio [7]: 1
IC50 (Trypanosoma cruzi [5]): > 74.7 µM

CCCCCCCCCCCCCCCCOP(=O)([O-])OCC[N+](C)(C)C [MILTEFOSINE]
selectivity ratio [1]: 245
CC50 at 72 h [2]: 137 µM

N#Cc1ccc(C(c2ccn(-c3ccc(C#N)cc3)c2)n2ccnc2)cc1 (stereo not drawn)
selectivity ratio [1]: 2
CC50 at 72 h [2]: 139 µM
IC50 (Plasmodium falciparum): 4.09 µM
IC50 [3]: 27.8 µM
IC50 (Leishmania donovani): 84.4 µM
selectivity ratio [4]: 34
selectivity ratio [7]: 5

Clc1ccc(C(c2c[nH]cc2-c2ccc(Cl)cc2-n2cccc2)n2ccnc2)c(Cl)c1 (stereo not drawn)
CC50 at 72 h [2]: 7.67 µM
IC50 (Plasmodium falciparum): 4.53 µM
IC50 [3]: 11.9 µM
IC50 (Leishmania donovani): 10.8 µM
selectivity ratio [4]: 2
IC50 (Trypanosoma cruzi [5]): 12 µM

Clc1ccc(C(c2c[nH]cc2-c2ccc(Cl)cc2-c2cccs2)n2ccnc2)c(Cl)c1 (stereo not drawn)
selectivity ratio [1]: 2
CC50 at 72 h [2]: 4.93 µM
Ratio IC50 (Trypanosoma cruzi [6]): 61
IC50 (Plasmodium falciparum): 0.27 µM
IC50 [3]: 8.31 µM
IC50 (Leishmania donovani): 2.78 µM
selectivity ratio [4]: 18
IC50 (Trypanosoma cruzi [5]): 0.027 µM

Cn1cc(C(c2ccc(Cl)cc2)n2ccnc2)cc1-c1ccc(Cl)cc1 (stereo not drawn)
selectivity ratio [1]: 2
CC50 at 72 h [2]: 12.1 µM
Ratio IC50 (Trypanosoma cruzi [6]): 330 - 825
Activity [8]: Non-Toxic
IC50 (Plasmodium falciparum): 1.41 µM
IC50 [3]: 40 µM
IC50 (Leishmania donovani): 5.7 µM
selectivity ratio [4]: 9
IC50 (Cytochrome P450 3A4): 1.1 µM
IC50 (Cytochrome P450 2D6): 3 µM
Activity [9]: Active
IC50 (Cytochrome P450 1A2): 2 µM
Activity (Trypanosoma cruzi [10]): 99.4%
IC50 (Trypanosoma cruzi [5]): 0.003 µM
Activity [11]: Non-Toxic
Activity [12]: Non-Toxic
Activity [13]: Non-Toxic

CSc1ccc(-c2c[nH]cc2C(c2ccc(Cl)cc2Cl)n2ccnc2)cc1 (stereo not drawn)
Ratio IC50 (Trypanosoma cruzi [6]): 57
IC50 (Trypanosoma cruzi [5]): 0.043 µM

C=CCn1cc(C(c2ccc(Cl)cc2)n2ccnc2)cc1-c1ccc(Cl)cc1 (stereo not drawn)
selectivity ratio [1]: 4
CC50 at 72 h [2]: 7.76 µM
Ratio IC50 (Trypanosoma cruzi [6]): 330 - 825
IC50 (Plasmodium falciparum): 0.63 µM
IC50 [3]: 38.7 µM
IC50 (Leishmania donovani): 2.16 µM
selectivity ratio [4]: 12
IC50 (Cytochrome P450 3A4): 0.9 µM
IC50 (Cytochrome P450 2D6): 2 µM
Activity [9]: Active
IC50 (Cytochrome P450 1A2): 1.2 µM
IC50 (Trypanosoma cruzi [5]): 0.002 µM

Source: ChEMBL document CHEMBL4411312, “Design, Synthesis, and Biological Evaluation of New 1-(Aryl-1 H-pyrrolyl)(phenyl)methyl-1 H-imidazole Derivatives as Antiprotozoal Agents” (J Med Chem, 2019)
